One assay concerns the target LC3B (Homo sapiens, UniProt Q9GZQ8). Nature of the assay: Fluorescence Polarization (FP) Assay: displacement of FITC-labeled peptide from GST-LC3B. The format is binding.
Conditions: not given
Here is the method: The compounds of the present invention for regulating the autophagy-related protein LC3B were tested by Fluorescence Polarization (FP) Assay.
Fluorescence Polarization (FP) Assay Test
With `CN(C)C=C1C(=O)CC(C2CCCCC2)CC1=O` (stereo not shown) [Compound 262, 4-((dimethylamino)methylene)-[1,1′-bi(cyclohexane)]-3,5-dione], the IC50 was < 3 µM.

Staying with this assay, now noted: Fluorescence Polarization assay; GST-LC3B 180 nM, FITC-labeled peptide 18 nM, 25° C.; read-out: IC50.
On to `Cc1ccc(C2CC(=O)C(=CNCCN3CCN(C(=O)N(C)C)CC3)C(=O)C2)cc1` (stereo not shown) [Compound 240, 4-(2-(((2,6-dioxo-4-(p-tolyl)cyclohexylidene)methyl)amino)ethyl)-N,N-dimethyl-piperazine-1-carboxamide], for which the IC50 was < 3 µM.

For the compound `COc1ccc(C2CC(=O)C(=CN(C)C)C(=O)C2)cc1` (stereo not shown) [Compound 241, 2-((dimethylamino)methylene)-5-(4-methoxyphenyl) cyclohexane-1,3-dione], the 50% inhibitory concentration (IC50) is < 3 µM.

For the compound `CN(C)C=C1C(=O)CC(c2ccc(N(C)C)cc2)CC1=O` (stereo not shown) [Compound 242, 2-((dimethylamino)methylene)-5-(4-(dimethylamino)phenyl) cyclohexane-1,3-dione], the IC50 is 3 to 15 µM. Same read-out and setting: for `COc1ccc(C2CC(=O)C(=CNCCN3CCN(C(=O)N4CCOCC4)CC3)C(=O)C2)cc1` (stereo not shown) [Compound 246, 5-(4-methoxyphenyl)-2-(((2-(4-(morpholine-4-carbonyl)piperazin-1-yl)ethyl)amino)-methylene) cyclohexane-1,3-dione] the value was < 3 µM; for `CN(C)C(=O)N1CCN(CCNC=C2C(=O)CC(c3ccc(Cl)cc3)CC2=O)CC1` (stereo not shown) [Compound 248, 4-(2-(((4-(4-chlorophenyl)-2,6-dioxocyclo-hexylidene)methyl)amino)ethyl)-N,N-dimethylpiperazine-1-carboxamide], < 3 µM; for `O=C1CC(c2ccc(Cl)cc2)CC(=O)C1=CNCCN1CCN(C(=O)N2CCOCC2)CC1` (stereo not shown) [Compound 249, 5-(4-chlorophenyl)-2-(((2-(4-(morpholine-4-carbonyl)piperazin-1-yl)ethyl)amino)methylene) cyclohexane-1,3-dione], < 3 µM.

As for `CN(C)C=C1C(=O)CC(c2ccc3c(c2)CCO3)CC1=O` (stereo not shown) [Compound 251, 5-(2,3-dihydrobenzofuran-5-yl)-2-((dimethylamino)methylene) cyclohexane-1,3-dione], the IC50 was < 3 µM. On the same count and under the same terms, as for `CN(C)C=C1C(=O)CC(c2ccc(C(F)(F)F)cc2)CC1=O` (stereo not shown) [Compound 254, 2-((dimethylamino)methylene)-5-(4-(trifluoromethyl)phenyl) cyclohexane-1,3-dione], the figure is < 3 µM. On to `CN(C)C=C1C(=O)CC(c2cccc(C(F)(F)F)c2)CC1=O` (stereo not shown) [Compound 255, 2-((dimethylamino)methylene)-5-(3-(trifluoromethyl)phenyl) cyclohexane-1,3-dione], for which the IC50 is < 3 µM. `CC(=O)Nc1ccc(C2CC(=O)C(=CN(C)C)C(=O)C2)cc1` (stereo not shown) [Compound 256, N-(4-(4-((dimethylamino)methylene)-3,5-dioxocyclohexyl)phenyl) acetamide]: the IC50 was < 3 µM.

`CN(C)C=C1C(=O)CC(c2cccnc2)CC1=O` (stereo not shown) [Compound 257, 2-((dimethylamino)methylene)-5-(pyridin-3-yl)cyclohexane-1,3-dione]: the IC50 was 15 to 100 µM. Same read-out and setting: as for `CN(C)C=C1C(=O)CC(c2ccc3[nH]ncc3c2)CC1=O` (stereo not shown) [Compound 259, 2-((dimethylamino)methylene)-5-(1H-indazol-5-yl)cyclohexane-1,3-dione], the figure is < 3 µM; as for `O=C1CC(c2ccc(C(=O)O)cc2)CC(=O)C1=CNCCN1CCOCC1` (stereo not shown) [Compound 260, 4-(4-(((2-morpholinoethyl)amino)methylene)-3,5-dioxocyclohexyl) benzoic acid], < 3 µM; as for `CN(C)C=C1C(=O)CC(c2cccs2)CC1=O` (stereo not shown) [Compound 264, 2-((dimethylamino)methylene)-5-(thiophen-2-yl)cyclohexane-1,3-dione], < 3 µM. On the same count and under the same terms, as for `CN(C)C=C1C(=O)CC(c2ccc(Cl)nc2)CC1=O` (stereo not shown) [Compound 266, 5-(6-chloropyridin-3-yl)-2-((dimethylamino)methylene) cyclohexane-1,3-dione], the figure is 3 to 15 µM; as for `CN(C)C=C1C(=O)CC(c2cccc(C(=O)NCCc3ccccc3)c2)CC1=O` (stereo not shown) [Compound 267, 3-(4-((dimethylamino)methylene)-3,5-dioxocyclohexyl)-N-phenethylbenzamide], 3 to 15 µM. Same read-out and setting: for `CN(C)C=C1C(=O)CC(c2cccc(C(=O)NCCCCc3ccccc3)c2)CC1=O` (stereo not shown) [Compound 269, 3-(4-((dimethylamino)methylene)-3,5-dioxocyclohexyl)-N-(4-phenylbutyl)-benzamide] the value was 3 to 15 µM. As for `CN(C)C=C1C(=O)CC(c2cccc3[nH]ccc23)CC1=O` (stereo not shown) [Compound 271, 2-((dimethylamino)methylene)-5-(1H-indol-4-yl)cyclohexane-1,3-dione], the IC50 was < 3 µM. On the same count and under the same terms, as for `CN(C)C=C1C(=O)CC(Cc2ccccc2)CC1=O` (stereo not shown) [Compound 272, 5-benzyl-2-((dimethylamino)methylene) cyclohexane-1,3-dione], the figure is 3 to 15 µM. Still for that read-out and setting: as for `CC(C)CNC(=O)C1CC(=O)C(=CN(C)C)C(=O)C1` (stereo not shown) [Compound 273, 4-((dimethylamino)methylene)-N-isobutyl-3,5-dioxocyclohexane-1-carboxamide], the figure is 15 to 100 µM. Still for that read-out and setting: as for `CCCNC(=O)C1CC(=O)C(=CN(C)C)C(=O)C1` (stereo not shown) [Compound 274, 4-((dimethylamino)methylene)-3,5-dioxo-N-propylcyclohexane-1-carboxamide], the figure is 15 to 100 µM. For `CC(C)CC1CC(=O)C(=CN(C)C)C(=O)C1` (stereo not shown) [Compound 276, 2-((dimethylamino)methylene)-5-isobutylcyclo-hexane-1,3-dione], the IC50 lay within 15 to 100 µM. In the case of `CN(C)C=C1C(=O)CC(c2cccc3ccccc23)CC1=O` (stereo not shown) [Compound 277, 2-((dimethylamino)methylene)-5-(naphthalen-1-yl)cyclohexane-1,3-dione], the IC50 is < 3 µM. Same read-out and setting: as for `CN(C)C=C1C(=O)CC(c2ccc3ccccc3c2)CC1=O` (stereo not shown) [Compound 278, 2-((dimethylamino)methylene)-5-(naphthalen-2-yl)cyclohexane-1,3-dione], the figure is < 3 µM; as for `CCCCn1cccc1C1CC(=O)C(=CN(C)C)C(=O)C1` (stereo not shown) [Compound 279, 5-(1-butyl-1H-pyrrol-2-yl)-2-((dimethylamino)methylene) cyclohexane-1,3-dione], 3 to 15 µM. Still for that read-out and setting: as for `CN(C)C=C1C(=O)CC(c2cccc3c2CCCC3)CC1=O` (stereo not shown) [Compound 280, 2-((dimethylamino)methylene)-5-(5,6,7,8-tetrahydro-naphthalen-1-yl)cyclohexane-1,3-dione], the figure is < 3 µM. Same read-out and setting: for `CN(C)C=C1C(=O)CC(c2ccc3[nH]ccc3c2)CC1=O` (stereo not shown) [Compound 281, 2-((dimethylamino)methylene)-5-(1H-indol-5-yl)cyclohexane-1,3-dione] the value was < 3 µM; for `CN(C)C=C1C(=O)CC(c2csc3ccccc23)CC1=O` (stereo not shown) [Compound 282, 5-(benzo[b]thiophen-3-yl)-2-((dimethylamino)methylene) cyclohexane-1,3-dione], < 3 µM; for `CN(C)C=C1C(=O)CC(c2c[nH]c3ccccc23)CC1=O` (stereo not shown) [Compound 283, 2-((dimethylamino)methylene)-5-(1H-indol-3-yl)cyclohexane-1,3-dione], < 3 µM. In the case of `CC(C)Cn1cccc1C1CC(=O)C(=CN(C)C)C(=O)C1` (stereo not shown) [Compound 284, 2-((dimethylamino)methylene)-5-(1-isobutyl-1H-pyrrol-2-yl)cyclohexane-1,3-dione], the half-maximal inhibitory concentration (IC50) was in the range of 3 to 15 µM.

The values are drawn from patent US11319303B2 (WIGEN BIOMEDICINE TECHNOLOGY (SHANGHAI) CO., LTD., priority 2017, dated 2022).
